{"source": "paper PMC9619220", "about": "(Computational and Structural Biotechnology Journal, 2022)", "key": {"TgPDE1 [1]": {"target": "T1, TgPDE1 (Toxoplasma gondii, UniProt A0A7J6K721)", "T1 construct": "gene TGRH88_036470; native smHA-tagged TgPDE1 immunoprecipitated from tachyzoites", "assay": "colorimetric PDE assay on immunoprecipitated enzyme, dose-response (cAMP hydrolysis; […] for cGMP)", "assay_type": "biochemical"}, "TgPDE2": {"target": "T2, TgPDE2 (Toxoplasma gondii, UniProt A0A7J6KGW2)", "T2 construct": "gene TGRH88_018390; native smHA-tagged TgPDE2 immunoprecipitated from tachyzoites", "assay": "colorimetric PDE assay, single concentration ([…]), partial inhibition of cAMP hydrolysis", "assay_type": "biochemical"}, "TgPDE1 [2]": {"target": "T1, TgPDE1", "assay": "colorimetric PDE assay, single concentration ([…]), moderate effect", "assay_type": "biochemical"}, "TgPDE1 [3]": {"target": "T1, TgPDE1", "assay": "colorimetric PDE assay on immunoprecipitated enzyme, dose-response (cAMP hydrolysis)", "assay_type": "biochemical"}, "[4]": {"substrate": "[H][C@@]12COP(=O)(O)O[C@@]1([H])[C@@H](O)[C@H](n1cnc3c(=O)[nH]c(N)nc31)O2", "assay": "Michaelis-Menten kinetics, colorimetric PDE assay (Km)", "assay_type": "biochemical, Toxoplasma gondii"}}, "data": [{"molecule": "CC(C)c1n[nH]c2c(=O)[nH]c(Cc3ccccc3)nc12", "note": "[BIPPO, 5-benzyl-3-isopropyl-1H-pyrazolo (4,3-d) pyrimidin-7(6H)-one]", "values": [{"measurement": "IC50", "setting": "TgPDE1 [1]", "value": 310, "unit": "nM"}]}, {"molecule": "CC(C)Cn1c(=O)n(C)c(=O)c2[nH]cnc21", "note": "[IBMX, 3-isobutyl-1-methylxanthine]", "values": [{"measurement": "colorimetric PDE assay, single concentration (100 μM), partial inhibition of cAM", "setting": "TgPDE2", "value": "hydrolysis of cAMP by TgPDE2 was sensitive to partial inhibition by IBMX but to none of the other drugs"}, {"measurement": "colorimetric PDE assay, single concentration (100 μM), moderate effect", "setting": "TgPDE1 [2]", "value": "The effect of IBMX on TgPDE1 was moderate."}]}, {"molecule": "CCCOc1ccccc1-c1nc2nn[nH]c2c(=O)[nH]1", "note": "[zaprinast, 1,4-Dihydro-5-(2-propoxyphenyl)-7H-1,2,3-triazolo (4,5-d) pyrimidin-7-one]", "values": [{"measurement": "IC50", "setting": "TgPDE1 [3]", "value": 1490, "unit": "nM"}]}, {"molecule": "TgPDE1 (Toxoplasma gondii) (protein, native smHA-tagged TgPDE1 immunoprecipitated from tachyzoites) MRLREHSLLLCVDAMSRDSPVASPAHSGVFGPSADAEVSEVFSLPSLSAVPGAASASSLSRENSLVSSRRASPSVSPPAGSPLWRLVRRCGQGEGERENVERCRLRERREECGAARRGPPASAATSDCSCPSAGDRRRVQSRRRRARTFQGRSFCGNHVSTEAEREGETEGEEETEGEEGREEYDSKRRGRLARRLGRRFVIAAAERGRKREGEETIVLRGNQGECWQEAQRTADSPDCSSSSVCCFGGSCSTASQCCACMRLASVSCPSPRSSFSTFHCSLPAVSSASAAFVCPRESPGSDSNSSPSCASSRGFSPSSPKATVSSSRPSSSSASPLRSSLSAPSGLFPVGSGCSSDVCVSVPLPAMFRGCRVHSSAPSSRTEQGTALLTGAPPSANELEAASAMANPTNSSRFSRVKTVSFATLSECGSSHISRRSDSASEPEAEREKPGLCSMRVARRESSPAARSPGRQSERRGTDSSCTSLPQRSDRAGRDRVGSRGSAEQRSSTSSRRVSDHSRAEAGLWSAGLGDSGASLEPDLESRSAFLRRCRARLAAARRKVCQAFQSLAEHDLVFRMKEDLAQMRHESSLRSVFADGCRERSGVEMSERTRLSVGGGTGRHLSVGTSTHKEGSTHKEGSEKERIRDGGSASPSTHLSRSGSGDVILRRFPLKFVDRGLEDLFADNINRWMATRLLMGVLSLVVTSVMWPLMAWSFNLLDAFNHSEPLGILFHINMAVTVFVAVLFIVTKRCRHLAEHAELIADGGTFLVVTIWGIWNTTASYILEHSYVQDVIGSAYPMHPADAPISLEKTSAWSTSLEASSAVAYLYGLLLIVQLDVVYPSRTRRTWQVHLMFFGFSTASIVIRGALNPDFVPVPFVVIRALTYLMLTVFLFIGRHATELQQRHTFYNWLTTRKRMDRLESDLKRQREKVKVSTAVEQLVHMVKHCMESCQTVESEVGSELHVSYRSLLIDCHQTLSRCLSILTHTSDLYTVQFGDLDSDAHRDIIQAFLNNHNSSPADWTRVTTAAYTRGVEDGCWSASDASSEAKSGDLGTPFAGSEALALVRRDSSHSWASSRGASAWPIQANWTGTLDGVHVHAFLHAVPEACGGAATPEHDGLRGEGLGDLGRASPRRQAGRQLTRLDEGRERDSEPEDLTDDGDSAEPPKNAASETEEKVSVPDNGRKTPTQALGEMKPGLTSKGLHDTLARVRASTHREVESRGRERRGDSAPCSSPSQRLTPQSLADFQARLRYEALIKLVHTSPRTPELSLGIPVSEEAARDWNFDCLRHAQLSPTPLVDVGYALLHRTSEDLRLPPDVVLRFLTAVEIQYNHVPYHNCIHGLMVAQKMVALTEVLELSQSIGSRDRALVVVAGLCHDIGHPGRNNALFINALDPVAVLYNDKSVLENYHSCLTFKTLELPDCDIFFSLRTKDYHMVRSLIIDLILATDMKNHFETVSRFRVRRNALDFDLSSEEDFWFAVKIIMKCADLSHCSVPWSQHFQWCQRLSVEFYDQGDEEVARHLPMSPLCDREKHSEVAKSQLGFMSFVAVPLFEELMAIDGTGNIEKYCISVMKTNASHWEALSSAAVPVPLLGEAPSPDVAPPLLHLIDGSGAAAVHPGSKAAEIANRYASSTVTTLDLTCLVYRTQLNRARRSSQQSGRRVSEGTSA", "values": [{"measurement": "Km", "setting": "[4]", "value": 18, "unit": "µM"}]}]}
